Laboratory results from US20100197745A1, “GAMMA-GLUTAMYL TRANSPEPTIDASE INHIBITORS AND METHODS OF USE” (priority 2008, published 2010).
“Also recorded” adds a separate entry of the source. Where two headings read alike, the source gives them in different places. Residues, ends and D or L forms follow the SMILES beside them.

Columns and labels:
[1] = tested on: metastatic melanoma to the liver; settings: acivicin used to deplete tumor GSH in combination with aggressive therapy (ref. 4); cited from earlier work
786-O cells = assay: Cytotoxicity assay (MTT, 72 hr) in dividing 786-O cells; type: cell-based
Method: 786-O (ATCC CRL-1932), a human renal cell adenocarcinoma line, was plated in DMEM supplemented with 5% FBS and penicillin/streptomycin (50 U/mL, 50 ug/mL) at 10^3 cells per well in 96-well plates. The next day the medium was changed to fresh DMEM containing FBS, antibiotics and the test compound. Equivalent concentrations of DMSO were added to control wells. Cell viability was determined by the MTT assay 72 hr after the addition of the test compound (20).
A two-tailed t-test was used to detect significant differences between OU749 inhibition of human GGT and inhibition of GGT from other species.

[2] = molecular target: T1, GGT isolated from rat kidney (Rattus norvegicus, UniProt P07314); assay: Inhibition of GGT isolated from rat kidney; type: biochemical; settings: rat kidney GGT (FIG. 5A)
T1 construct: male Sprague-Dawley rat kidney; from tissue; host or cells: male Sprague-Dawley rat kidney, Triton X-100 extract of microsomes
T1 sequence (P07314 whole entry): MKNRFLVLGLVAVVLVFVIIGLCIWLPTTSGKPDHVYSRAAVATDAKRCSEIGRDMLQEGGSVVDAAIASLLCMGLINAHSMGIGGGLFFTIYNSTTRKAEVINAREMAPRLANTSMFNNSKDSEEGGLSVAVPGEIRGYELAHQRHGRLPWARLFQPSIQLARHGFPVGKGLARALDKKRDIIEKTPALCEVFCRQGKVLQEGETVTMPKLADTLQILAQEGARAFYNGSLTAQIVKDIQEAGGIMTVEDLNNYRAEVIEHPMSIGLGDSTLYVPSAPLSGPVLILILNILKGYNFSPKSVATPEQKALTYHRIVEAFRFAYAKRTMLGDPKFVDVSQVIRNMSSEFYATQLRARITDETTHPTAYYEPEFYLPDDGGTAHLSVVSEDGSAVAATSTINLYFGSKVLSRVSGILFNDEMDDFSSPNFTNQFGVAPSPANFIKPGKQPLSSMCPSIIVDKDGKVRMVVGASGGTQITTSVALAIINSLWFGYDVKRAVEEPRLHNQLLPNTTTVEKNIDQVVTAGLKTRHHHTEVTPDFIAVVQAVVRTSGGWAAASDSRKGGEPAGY
Method: (§1) GGT was isolated from human kidney (National Disease Research Interchange, Philadelphia, PA), male Sprague-Dawley rat kidney and female Balb/c mouse kidney. Tissue was homogenized in 4 volumes of 25 mM Tris pH 7.5, containing 0.33 M sucrose, 0.2 mM EDTA, 1 μM leupeptin and 1.4 μg/ml aprotinin. A 9000 g supernatant was spun at 100,000 g for 1 h. The microsomal pellet was homogenized in 25 mM Tris pH 7.35, 0.5% Triton X-100, 1 μM leupeptin, 1.4 μg/ml aprotinin then centrifuged again at 100,000 g for 1 h. The supernatant was assayed for GGT activity, aliquoted, and stored at −80° C. until further use. All solutions were maintained at 4° C. throughout the isolation. The specific activities of GGT were 3.4, 7.4, and 1.5 units/mg protein for human, rat, and mouse preparations, respectively. Prior to use in the GGT assay, the enzyme was diluted in phosphate-buffered saline (PBS) containing 0.025% Triton X-100 and 0.19 m Units of enzyme were used per assay unless otherwise indicated.
(§2) The concentrations of the substrate GpNA and the acceptor Gly-Gly were varied as indicated. Purified GGT was added to initiate the assay. The reaction was monitored as described for the high throughput screening.

GGT from rat kidney = molecular target: T2, GGT from rat kidney (Rattus norvegicus, UniProt P07314); assay: Glutathione degradation by rat kidney GGT; type: biochemical; settings: 1 mM glutathione, 40 mM glycylglycine (FIG. 6B)
T2 construct: male Sprague-Dawley rat kidney; from tissue; host or cells: male Sprague-Dawley rat kidney, Triton X-100 extract of microsomes
T2 sequence (P07314 whole entry): as above
Method: (§3) An incubation mixture contained 1 mM glutathione, 40 mM glycyl-glycine, and inhibitor in the GGT assay buffer. Reactions were initiated with the addition of 1.9 mU of GGT and incubated at 37° C. The final volume of the reaction was 100 μL. Aliquots of the reaction mixture were removed at the specified time points, immediately acidified with an equal volume of cold 4.31% 5-sulfosalicylic acid, and maintained at 4° C. until glutathione concentration was determined by the method of Tietze (21).

GGT in LLC-PK1 cells = molecular target: T3, GGT in LLC-PK1 cells (Sus scrofa, UniProt P20735); assay: Inhibition of cell-surface GGT in pig kidney cell line; type: cell-based; settings: LLC-PK1 (FIG. 5B)
T3 construct: LLC-PKI (ATCC CRL 1392), a pig kidney cell line; host or cells: LLC-PK1 pig kidney cells
Method: (§4) An assay method was developed to screen for inhibitors of GGT. The assays were conducted in 96-well plates. The final volume in each well was 100 μL. The assay buffer contained: 100 mM Na2HPO4 pH 7.4, with 3.2 mM KCI, 1.8 mM KH2PO4, and 27.5 mM NaCl. Each reaction contained 1 mM L-glutamic acid γ-4-nitroanilide HCI (GpNA) and 40 mM glycyl-glycine (Gly-Gly)(19). GGT is expressed on the cell surface and the assay was initiated by addition of 10^4 786-O cells (ATCC CRL-1932, a GGT-positive human renal cell adenocarcinoma line).
(§5) LLC-PKI (ATCC CRL 1392), a pig kidney cell line, NRK-52E (ATCC CRL-1571), a normal rat kidney cell line, LLC-MK2 (ATCC CCL-7), a normal kidney monkey cell line, and 786-O cells were grown in complete Dulbecco's Modified Eagle's Medium (DMEM) supplemented with 5% FBS (Hyclone, Logan, Utah), and penicillin/streptomycin (50 U/mL, 50 μg/mL) (Invitrogen, Carlsbad, Calif.). NIH/3T3 cells transfected with cDNA encoding human GGT were described previously and were grown in DMEM/F12 containing 200 μg/mL of G418 (6). HK-2 (ATCC CRL-2190), a human cell line derived from immortalized normal proximal tubule cells, were grown in keratinocyte serum-free media (K-SFM) from ATCC (Manassas, Va.). The cells were trypsinized off the plates and suspended in PBS for the GGT assay.

GGT in LLC-MK2 cells = assay: Inhibition of cell-surface GGT in monkey kidney cell line; type: cell-based; settings: LLC-MK2 (FIG. 5B)
Method: as §4, §5

[3] = molecular target: T4, GGT isolated from human kidney (Homo sapiens, UniProt P19440); assay: GGT transpeptidation kinetic assay (GpNA / glycyl-glycine) with GGT isolated from human kidney; type: biochemical; settings: for Michaelis constant of the substrate (Kglygly, KGpNA): human kidney GGT
T4 construct: GGT was isolated from human kidney; tissue National Disease Research Interchange, Philadelphia, PA; host or cells: human kidney, Triton X-100 extract of microsomes
T4 sequence (P19440 1-380 limits assumed): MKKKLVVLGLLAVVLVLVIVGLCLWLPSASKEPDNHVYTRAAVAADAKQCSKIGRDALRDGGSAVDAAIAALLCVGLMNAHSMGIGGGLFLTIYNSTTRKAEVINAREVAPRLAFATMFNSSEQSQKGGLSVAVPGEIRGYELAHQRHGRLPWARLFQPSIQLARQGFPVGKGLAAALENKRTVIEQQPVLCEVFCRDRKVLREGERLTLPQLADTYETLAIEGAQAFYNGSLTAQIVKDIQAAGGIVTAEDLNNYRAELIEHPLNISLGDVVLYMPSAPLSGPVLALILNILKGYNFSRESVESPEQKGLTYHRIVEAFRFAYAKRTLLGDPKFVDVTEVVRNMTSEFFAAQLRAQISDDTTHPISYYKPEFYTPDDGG
T4 sequence (P19440 381-569 limits assumed): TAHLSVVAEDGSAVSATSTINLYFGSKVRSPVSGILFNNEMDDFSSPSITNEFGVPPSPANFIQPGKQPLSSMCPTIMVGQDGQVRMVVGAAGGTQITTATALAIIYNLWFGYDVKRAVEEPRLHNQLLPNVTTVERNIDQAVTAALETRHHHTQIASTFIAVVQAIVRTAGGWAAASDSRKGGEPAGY
Method: as §4, §1, §2
Initial velocity data were first analyzed graphically using double-reciprocal plots of initial velocities versus substrate concentration and suitable secondary plots.
Data for competitive and uncompetitive inhibition were fitted using Equations 1 and 2.

[4] = molecular target: T5, human GGT expressed in Pichia pastoris (Homo sapiens, UniProt P19440); assay: GGT kinetic assay with purified human GGT expressed in Pichia pastoris; type: biochemical
T5 construct: The soluble domain of human GGT (amino acids 28-569) was amplified by PCR; His6 (TEV protease-cleavable) (N, cleaved yes); made in house; host or cells: Pichia pastoris strain X-33 (pPICZαA, plasmid pMW-102), secreted
T5 sequence (P19440 28-569): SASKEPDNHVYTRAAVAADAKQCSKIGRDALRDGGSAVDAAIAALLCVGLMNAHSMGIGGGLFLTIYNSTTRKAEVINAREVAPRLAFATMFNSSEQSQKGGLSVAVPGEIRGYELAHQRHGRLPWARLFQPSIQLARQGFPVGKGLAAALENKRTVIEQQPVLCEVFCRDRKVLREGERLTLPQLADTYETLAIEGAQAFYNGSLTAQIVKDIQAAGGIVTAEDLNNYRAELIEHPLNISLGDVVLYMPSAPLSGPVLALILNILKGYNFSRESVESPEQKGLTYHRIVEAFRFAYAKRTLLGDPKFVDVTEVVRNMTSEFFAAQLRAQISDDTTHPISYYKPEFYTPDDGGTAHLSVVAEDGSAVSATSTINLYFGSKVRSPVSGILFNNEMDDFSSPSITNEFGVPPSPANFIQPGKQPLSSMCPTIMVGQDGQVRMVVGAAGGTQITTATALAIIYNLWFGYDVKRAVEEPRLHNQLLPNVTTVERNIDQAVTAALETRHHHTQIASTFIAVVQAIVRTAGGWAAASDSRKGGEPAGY
Description: The soluble domain of human GGT (amino acids 28-569) was amplified by PCR. The forward primer introduced a EcoRI restriction site and a TEV protease-cleavable N-terminal His6 tag, while the reverse primer introduced a NotI restriction site after the stop codon of genomic GGT. The PCR product was digested with EcoRI and Not I and inserted into the corresponding sites of pPICZαA (Invitrogen), generating plasmid pMW-102. This construct was amplified in E. coli DH5α cells. The fidelity of the recombinant ORF was verified by sequencing (Oklahoma Medical Research Foundation's DNA Sequencing Core Facility, Oklahoma City, Okla.). The SacI-linearized plasmid, pMW-102, was purified and transformed into wild-type Pichia pastoris strain X-33, selected and induced as recommended by Invitrogen. Secreted, recombinant, His6-tagged, human GGT was collected from the media with a Ni-NTA column. The hexahistidine tag was cleaved with His6-tagged TEV protease. […]
The concentrations of the substrate GpNA and the acceptor Gly-Gly were varied as indicated. […] The reaction was monitored as described for the high throughput screening.
Initial velocity data were first analyzed graphically using double-reciprocal plots of initial velocities versus substrate concentration and suitable secondary plots. […]

[5] = molecular target: T6, GGT in 786-O and HK-2 cells (Homo sapiens, UniProt P19440); assay: Inhibition of cell-surface GGT in human kidney cell lines; type: cell-based; settings: 786-O and HK-2 (FIG. 5B)
T6 construct: GGT is expressed on the cell surface; CRL-2190 (HK-2); host or cells: 786-O human renal adenocarcinoma cells; HK-2 human proximal tubule cells
T6 sequence (P19440 whole entry): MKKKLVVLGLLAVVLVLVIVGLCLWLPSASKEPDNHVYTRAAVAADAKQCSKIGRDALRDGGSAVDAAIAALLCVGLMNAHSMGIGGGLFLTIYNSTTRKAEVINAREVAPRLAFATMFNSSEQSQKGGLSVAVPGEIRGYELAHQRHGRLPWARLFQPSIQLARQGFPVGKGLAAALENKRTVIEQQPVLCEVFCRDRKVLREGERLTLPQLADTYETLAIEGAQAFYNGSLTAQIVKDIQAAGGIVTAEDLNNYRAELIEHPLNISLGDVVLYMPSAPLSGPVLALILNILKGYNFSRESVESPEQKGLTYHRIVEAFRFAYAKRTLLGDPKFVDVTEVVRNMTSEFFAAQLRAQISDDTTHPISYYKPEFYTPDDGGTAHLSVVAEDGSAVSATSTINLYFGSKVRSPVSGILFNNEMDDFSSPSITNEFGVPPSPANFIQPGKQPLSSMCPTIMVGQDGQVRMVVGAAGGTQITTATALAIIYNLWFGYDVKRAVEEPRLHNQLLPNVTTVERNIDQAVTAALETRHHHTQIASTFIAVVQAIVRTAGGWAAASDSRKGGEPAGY
Method: as §4, §5

GGT in NRK-52E cells = molecular target: T7, GGT in NRK-52E cells (Rattus norvegicus, UniProt P07314); assay: Inhibition of cell-surface GGT in rat kidney cell line; type: cell-based; settings: NRK-52E (FIG. 5B)
T7 construct: NRK-52E (ATCC CRL-1571), a normal rat kidney cell line; host or cells: NRK-52E rat kidney cells
T7 sequence (P07314 whole entry): as the sequence (P07314 whole entry) above
Method: as §4, §5

human kidney GGT = molecular target: T8, human kidney GGT (Homo sapiens, UniProt P19440); assay: Glutathione degradation by human kidney GGT; type: biochemical
T8 construct: GGT was isolated from human kidney; tissue National Disease Research Interchange, Philadelphia, PA; host or cells: human kidney, Triton X-100 extract of microsomes
T8 sequence (P19440 1-380 limits assumed): as the sequence (P19440 1-380 limits assumed) above
T8 sequence (P19440 381-569 limits assumed): as the sequence (P19440 381-569 limits assumed) above
Method: as §3

GGT from mouse kidney = molecular target: T9, GGT from mouse kidney (Mus musculus, UniProt Q60928); assay: Inhibition of GGT isolated from mouse kidney; type: biochemical; settings: mouse kidney GGT (FIG. 5A)
T9 construct: female Balb/c mouse kidney; from tissue; host or cells: female Balb/c mouse kidney, Triton X-100 extract of microsomes
Method: as §1, §2

[6] = molecular target: T10, human GGT expressed in mouse NIH3T3 fibroblasts (Homo sapiens, UniProt P19440); assay: Inhibition of human GGT expressed in mouse NIH3T3 fibroblasts; type: cell-based; settings: NIH3T3 transfected with human GGT cDNA (FIG. 5B)
T10 construct: expressed in transfected cells; host or cells: NIH/3T3 mouse fibroblasts, G418-selected
T10 sequence (P19440 whole entry): as the sequence (P19440 whole entry) above
Method: as §4, §5

[7] = appKi obtained by varying GpNA, glygly fixed at 40 mM, uncompetitive, read-out: Inhibition of Transpeptidation (Alpha Ki)

## N[C@H](C(=O)O)[C@@H]1CC(Cl)=NO1 [Acivicin, acivicin, reference compound]
[1]
  complete cure of metastatic melanoma to the liver, share of test animals: 90%
786-O cells; human, 72 h
  LD50: 0.81 µM

## COc1ccc(Cc2nnc(NS(=O)(=O)c3ccccc3)s2)cc1 [Compound 3, N-[5-(4-methoxybenzyl)-1,3,4-thiadiazol-2-yl]benzenesulfonamide]
[2]
  fold less potent than against GGT isolated from human kidney: 7 fold
GGT from rat kidney
  inhibition of degradation of glutathione: unable to inhibit; also recorded: did not inhibit
GGT in LLC-PK1 cells
  inhibition of GGT in pig kidney cell line: not inhibited
GGT in LLC-MK2 cells
  inhibition of GGT in monkey kidney cell line: only weakly inhibited
[3]; 0-125 μM, 40 mM glycylglycine (FIG. 3)
  inhibition of GGT isolated from human kidney: inhibited GGT isolated from human kidney in a dose-dependent manner
[3]; GpNA varied, glygly 40 mM
  type of inhibition with respect to GpNA: uncompetitive
[3]; [7]
  Ki: 73.8 ± 2.5 µM
[3]; fit of data of FIGS. 4A-D to the equation for noncompetitive inhibition, read-out: Ki binding to the E form of the enzyme
  Ki: > 200 µM
[3]; glygly varied, GpNA 3 mM
  type of inhibition with respect to glygly: competitive
[3]; glygly varied, GpNA maintained at 3 mM, read-out: Ki, competitive with respect to glygly (intrinsic value)
  Ki: 17.6 ± 3.8 µM
[3]; relative to binding in the presence of the γ-glutamyl moiety
  weaker binding to the E form: > 10 fold
[4]; GpNA varied, 40 mM glycylglycine, read-out: appKi obtained varying GpNA
  Ki: 58.2 ± 1.6 µM
[4]; glygly varied, 3 mM GpNA, read-out: appKi as a competitive inhibitor of glygly
  Ki: 25 ± 2 µM
[5]
  inhibition of GGT in human kidney cell lines: dose-dependent inhibition
GGT in NRK-52E cells
  inhibition of GGT in rat kidney cell line: only weakly inhibited
Human kidney GGT; 1 mM glutathione, 40 mM glycylglycine, 62.5-500 uM compound (FIG. 6A)
  inhibition of cleavage of glutathione: inhibited the cleavage of glutathione in a dose-dependent manner; also recorded: inhibited glutathione breakdown by human GGT
Human kidney GGT; human GGT, data not shown
  inhibition of cleavage of oxidized glutathione (GSSG): inhibited the cleavage of oxidized glutathione
GGT from mouse kidney
  fold less potent than against GGT isolated from human kidney: 10 fold
786-O cells; 786-O cells in log growth
  fold less toxic than acivicin: more than 150 fold
  toxicity relative to acivicin: at least an order of magnitude less toxic than acivicin
786-O cells; 786-O cells in log growth, listed as compound 3
  fold less toxic than acivicin: 150 fold
786-O cells; dividing 786-O cells, 3 days with test compound, MTT
  LD50: 128 µM
[6]
  inhibition of human GGT expressed in mouse cells: inhibited by compound 3 to the same extent as human GGT expressed in other human cells

## O=S(=O)(Nc1nnc(Cc2ccccc2)s1)c1ccc(Cl)cc1 [Compound 4]
[3]; [7]
  Ki: 75.9 ± 1.7 µM

## COc1ccc(Cc2nnc(NS(=O)(=O)c3ccc([N+](=O)[O-])cc3)s2)cc1 [Compound 7]
[3]; [7]
  Ki: 114 ± 8.4 µM

## COc1ccc(S(=O)(=O)Nc2nnc(Cc3ccc(OC)c(OC)c3)s2)cc1 [Compound 9]
[3]; [7]
  Ki: 1110 µM

## N[C@@H](CCC(=O)Nc1ccc([N+](=O)[O-])cc1)C(=O)O [GpNA, L-glutamic acid γ-4-nitroanilide HCI, reference compound]
[3]
  Michaelis constant of the substrate (Kglygly, KGpNA): 1.07 ± 0.04 mM

## NCC(=O)NCC(=O)O [glygly, glycyl-glycine, reference compound] (H-Gly-Gly-OH)
[3]
  Michaelis constant of the substrate (Kglygly, KGpNA): 11.4 ± 1.2 mM
